Test results taken from US20060234985A1, “Combination therapy comprising a bisphosphonate and a hmg-coa reductase inhibitor” (priority 2002, published 2006).

Tests used:
[1] = test system: myeloma cell line LP-1; assay: tetrazolium reduction (Promega MTS) assay with isobologram analysis, LP-1; type: cell-based, human
Method: (§1) We investigated the cytotoxic effect of the HMG-CoA reductase inhibitor fluvastatin on the human multiple myeloma cell lines LP-1, OPM-2, U266, NCI-H929 and RPMI-8226 in vitro using a tetrazolium reduction assay. After 3 days culture in the presence of 0 to 50 μM fluvastatin, the Promega MTS assay reagent was used to determine the level of inhibition of cell proliferation and/or cell death.
(§2) Using the same assay we investigated whether the activity of fluvastatin against multiple myeloma in vitro could be enhanced by the addition of the bisphosphonate Zometa® (zoledronic acid). Using 80% cell inhibition as an end point, isobolograms were constructed to visualize the interaction between fluvastatin and Zometa®.

[2] = test system: U266; assay: tetrazolium reduction (Promega MTS) assay, U266; type: cell-based, human; conditions: 3 days culture
Method: as §1

[3] = test system: human multiple myeloma cell lines LP-1, OPM-2, U266, NCI-H929 and RPMI-8226; assay: tetrazolium reduction (Promega MTS) assay of cell proliferation and/or cell death, myeloma cell line panel; type: cell-based; conditions: 3 days culture, p<0.05 by paired Student's t-test
Method: as §1
as §2, with “Zometa®. […] To illustrate this point, >50 μM fluvastatin or […] Zometa® alone was required to induce 80% cell death in the myeloma cell line LP-1 but the combination of 25 μM fluvastatin and 0.21 μM Zometa® had the same effect.” for “Zometa®.”

[4] = test system: OPM-2; assay: tetrazolium reduction (Promega MTS) assay, OPM-2; type: cell-based, human; conditions: 3 days culture
Method: as §1

| SMILES | concentration required to induce 80% cell death ([1]; Zometa alone) [µM] | inhibition at 50 μM [2] [%] | concentration required to induce 80% cell death ([1]; fluvastatin alone) [µM] | inhibition of proliferation ([3]; 25 μM and 50 μM, all cell lines) | fluvastatin concentration as low as which significantly inhibited proliferation ([3]; all cell lines except RPMI-8226) [µM] | inhibition at 50 μM [4] [%] |
| --- | --- | --- | --- | --- | --- | --- |
| O=P(O)(O)C(O)(Cn1ccnc1)P(=O)(O)O [Zometa®, 2-(imidazol-1yl)-1-hydroxyethane-1,1-diphosphonic acid] | > 100 | – | – | – | – | – |
| CC(C)n1c(/C=C/C(O)CC(O)CC(=O)O)c(-c2ccc(F)cc2)c2ccccc21 (stereo not drawn) [fluvastatin] | – | 45 | > 50 | significantly inhibited proliferation | 2.5 | > 90 |
